Values of other authors in patent US20050208598A1 (priority 2004, published 2005).

Target: avidin (Gallus gallus, UniProt P02701)
Details: read-out: Kd of binding to avidin

Sequence of avidin (P02701 25-152, species assumed): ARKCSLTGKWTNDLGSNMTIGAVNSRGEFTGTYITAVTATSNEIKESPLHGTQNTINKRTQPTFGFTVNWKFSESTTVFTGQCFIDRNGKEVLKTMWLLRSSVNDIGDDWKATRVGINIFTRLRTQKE

Kd [µM]	SMILES
~6	O=C(O)c1ccccc1N=Nc1ccc(O)cc1 [HABA, 2-(4-hydroxyphenylazo)benzoic acid]
~0.1	C[C@@H]1NC(=O)N[C@@H]1CCCCCC(=O)O [desthiobiotin]
